Residues, ends and D or L forms follow the SMILES beside them. No end group written: not given here.
Key:
[1] = test system: p124-specific CD8 T cells; test: Cross-presentation of synthetic long peptides by monocyte-derived dendritic cells to p124-specific CD8 T cells; assay type: cell-based, human; conditions: moDC loaded with 10 μM SLP; for T cell activation by cross-presented synthetic long peptide (wild type epitope): FIG. 7; for cross-presentation of synthetic long peptide (V-variant epitope): FIG. 8
Description: HLA-A*02:01 positive PBMCs were isolated from buffy-coats from consented donors (Sanquin bloodbank, Amsterdam), using a gradient ficoll layer. PBMCs were incubated with anti-CD14 magnetic beads for 20 min at 4° C. and the CD14 positive monocytes were isolated using magnetic separation columns (miltenyi). CD14+ monocyte were cultured in RPMI medium supplemented with 10% FCS, GM-CSF (800 units/ml), and IL-4 (500 units/ml) for 6 days to generate immature monocyte-derived dendritic cells. On day 6, the immature moDCs were incubated with synthetic long peptide (10 μM, Genscript) for 2h, followed by overnight incubation with LPS (20 ng/ml). Matured and loaded moDCs (30,000 cells) were washed and co-cultured with previously established tetramer positive T cells (50,000 cells) for 16 h. Direct presentation of synthetic long peptides was tested by continuous incubation with TIMP3-specific CD8 T cell bulk for 16 h in the absence of moDC. Cytokine release by T cells was then measured in supernatants by ELISA.
The synthetic long peptide (SLP) platform is highly immunogenic and successfully applied in therapeutic SLP vaccination for HPV-induced cancers (Kenter et al. 2009; van Poelgeest et al. 2016). Therefore, the inventors examined the efficiency of cross-presentation of long versions of the TIMP3-derived signal peptide SLGDWGAEA (SEQ ID NO: 2) in dendritic cells, using natural flanking amino acids extending the amino-terminus, the carboxy-terminus, or both ends (Table 3). Monocyte-derived dendritic cells (moDC) were incubated with these three SLPs (P124 long 1-3; SEQ ID NOs: 22-24), then matured, and used as targets for the p124-specific CD8 T cell culture to assess correct processing and HLA-A2 presentation of the minimal TEIPP epitope. Despite the fact that the c-terminus was an alanine, the TIMP3-derived signal peptide SLGDWGAEA (SEQ ID NO: 2) was cross-presented by DCs from a longer peptide to p124-specific CD8 T cells (FIG. 7).
Therefore, the cross-presentation of the V-variant was evaluated as synthetic long peptide extended with natural flanking amino acids (Table 3). After uptake and processing of the five different variants (P124 long V1-3, V1-4, V1-6, V2 and V3; SEQ ID NOs: 25, 110, 111, 26 and 27), moDCs were co-cultured with the p124-specific T cell cultures and cytokine production was measured (FIG. 8). […] The lack of recognition of DCs not loaded with peptide reiterates that moDCs, despite the high expression of TIMP3 (FIG. 4), are not recognized.

[2] = test system: SLGDWGAEA-specific T cells; test: Interferon-gamma production of SLGDWGAEA-specific T cells stimulated with variant peptides pulsed on HLA-A*0201 positive EBV transformed B-cells; assay type: cell-based, human; conditions: for Recognition (IC50): concentration of peptide for half maximal interferon-gamma production of SLGDWGAEA-specific T cells; for response of peptide 124-specific CD8+ T cell culture to variant peptide: short minimal peptides exogenously pulsed on HLA-A*0201 positive EBV transformed B-cells
Excerpt: The inventors investigated if exchanges into another amino acids would result in a more efficiently processed epitope. First, they examined whether these substitutions would interfere with T cell receptor interaction. The inventors exogenously pulsed the short minimal peptides of Table 4 with the C-terminal valine (V), leucine (L), isoleucine (I), or methionine (M) on HLA-A*0201 positive EBV transformed B-cells and measured the activation of the peptide 124-specific CD8+ T cell culture.

[3] = test system: SLGDWGAEA-specific T cell cultures; test: Tetramer staining of peptide 124-specific T cell cultures; assay type: binding, human; conditions: three T cell cultures, donors 2028, 4409, 2752
Excerpt: T cell cultures of donors 2028, 4409 and 2752 were stimulated with the peptide SLGDWGAEA (SEQ ID NO:2) and analyzed via flow cytometry for the percentage of CD8+ T cells and the percentage therein of CD8+ T cells that stained positive with the HLA-A*02:01 tetramer presenting peptide SLGDWGAEA. All three SLGDWGAEA-specific T cell cultures comprise more than 97% CD8+ T cells that stained for more than 99% positive with SLGDVGAEA-loaded HLA-A*02:01 tetramers (indicated by HLA-A*02:01: SLGDWGAEA™ in FIG. 1). These SLGDWGAEA-specific T cells were used in subsequent experiments described below. In the present application and figures, peptide SLGDWGAEA is also referred to as ‘peptide 124’ or ‘p124’.
Buffy coats from healthy donors were obtained from Sanquin (Sanquin blood facility). Informed consent was given in writing by all participants. PBMCs were isolated using a ficoll gradient (density 1.077 g/ml). Approximately 500×10^6 PBMCs were incubated with PE-labeled pHLA-A*02:01 tetramers (Flex-T™ HLA-A*02:01 Monomer UVX van Biolegend) for 30 min at RT. Anti-PE magnetic beads (MACS) were used to pull out pHLA-A*02:01 tetramer-positive cells over a MACS LS column as instructed by the manufacturer (Miltenyi Biotech). T cells were cultured in complete IMDM containing 10% human serum (Sanquin blood facility) and 100 U/ml IL-2 (Proleukine; Novartis). […]

[4] = test system: CD8+ T cells present in peripheral blood mononuclear cells (PBMC); test: In vitro expansion of peptide multimer-positive CD8+ T cells from PBMC of healthy donors; assay type: cell-based, human
Description: Buffy coats from healthy donors were obtained from Sanquin (Sanquin blood facility). Informed consent was given in writing by all participants. PBMCs were isolated using a ficoll gradient (density 1.077 g/ml). Approximately 500×10^6 PBMCs were incubated with PE-labeled pHLA-A*02:01 tetramers (Flex-T™ HLA-A*02:01 Monomer UVX van Biolegend) for 30 min at RT. Anti-PE magnetic beads (MACS) were used to pull out pHLA-A*02:01 tetramer-positive cells over a MACS LS column as instructed by the manufacturer (Miltenyi Biotech). T cells were cultured in complete IMDM containing 10% human serum (Sanquin blood facility) and 100 U/ml IL-2 (Proleukine; Novartis). Bulk T cells were stimulated every 2 weeks with a mixture of T cells (106), 1 μg/ml synthetic peptide (SLGDWGAEA (SEQ ID NO: 2) (TIMP3)), irradiated PBMCs (10 cells, 50 Gray), and EBV-JY (10W cells, 75 Gray) in complete T cell culture medium supplemented with 100 U/ml IL-2 in 24-well plates (Costar). Culture medium was replenished every 2-3 d with fresh complete T cell medium.
36 peptides (designated 101 to 136) were selected for their capacity to activate CD8+ T cells present in peripheral blood mononuclear cells (PBMC) of maximal 5 healthy donors, following the protocol described earlier (Marnjt et al., 2018). […]

[5] = test system: p124-specific CD8 T cells; test: Stimulation of p124-specific T cells by exogenous short p124 peptide; assay type: cell-based, human; conditions: FIG. 7
Description: The peptide 124-specific T-cell culture from donor 4409 was stimulated with HLA-A*0201 matched monocyte-derived dendritic cells (MoDCs) from three different donors (indicated by MoDCs 0559, MoDC 4553 and MoDC 7401), which were loaded with (10 uM for 20-24h) the indicated synthetic long peptides (SLP) (“p124 long 1” (SEQ ID NO: 22), (“p124 long 2” (SEQ ID NO: 23), (“p124 long 3” (SEQ ID NO: 24)) or with no peptide as background control. The T cell culture incubated with 25 ug/ml the p124-peptide SLGDWGAEA served as positive control for reactivity (indicated by “T cells+p124”). The amount of interferon-gamma (IFNy) or GM-CSF produced is shown on the y-axis in pg/ml.
The synthetic long peptide (SLP) platform is highly immunogenic and successfully applied in therapeutic SLP vaccination for HPV-induced cancers (Kenter et al. 2009; van Poelgeest et al. 2016). Therefore, the inventors examined the efficiency of cross-presentation of long versions of the TIMP3-derived signal peptide SLGDWGAEA (SEQ ID NO: 2) in dendritic cells, using natural flanking amino acids extending the amino-terminus, the carboxy-terminus, or both ends (Table 3). […]

TAP-negative tumor cells = test: Preferential recognition of TAP-negative over TAP-positive tumor cells by peptide-stimulated T cell cultures (TEIPP screen); assay type: cell-based, human; conditions: TAP-negative vs TAP-positive tumor cells
Description: TCR-transduced or bulk-cultured TEIPP T cells were tested for their ability to selectively recognize the indicated TEIPP epitope presented on TAP impaired tumors by co-culturing them for 18 hours with wild-type (wt), TAP-KO and/or TAP/TIMP3-KO tumor cells at a 5-to-1 target-to-T cell ratio, after which supernatants were harvested and analyzed for cytokine production by GM-CSF, CCL4 and/or IFNg ELISA. Unstimulated and peptide-stimulated T cells were used as negative and positive controls. For some experiments, also endogenous TEIPP antigen-expressing healthy cells such as Epstein-Barr virus (EBV) transformed B-cells, monocytes or monocyte-derived dendritic cells were included as additional controls. Test were performed in triplo in 96 well round bottom plates at 1:1 target to effector ratio.
36 peptides (designated 101 to 136) were selected for their capacity to activate CD8+ T cells present in peripheral blood mononuclear cells (PBMC) of maximal 5 healthy donors, following the protocol described earlier (Marnjt et al., 2018). […] After an in vitro expansion and enrichment of the responding T cell cultures, 18 of the 21 cases could be tested for their capacity to preferentially recognize TAP-negative tumor cells over TAP-positive tumor cells. […] These cultures were stimulated with peptide 105, 113, or 124. […]

Compound: MTPWLGLIVLLGSWSLGDWGAEA [P124 long 1]
- T cell activation by cross-presented synthetic long peptide (wild type epitope) [1]: the T cells were activated

Compound: SLGDWGAEI [SLGDWGAEI]
- Recognition (IC50) ([2]; Table 1): 0.284929 µg/mL
- Recognition (IC50) ([2]; Table 4): 0.284929 µg/mL

Compound: SLGDWGAEM [SLGDWGAEM]
- response of peptide 124-specific CD8+ T cell culture to variant peptide [2]: No response was observed

Compound: CC[C@H](C)[C@H](N)C(=O)N[C@H](C(=O)N[C@@H](CC(C)C)C(=O)N[C@@H](CC(C)C)C(=O)NCC(=O)N[C@@H](CO)C(=O)N[C@@H](Cc1c[nH]c2ccccc12)C(=O)N[C@@H](CO)C(=O)N[C@@H](CC(C)C)C(=O)NCC(=O)N[C@@H](CC(=O)O)C(=O)N[C@@H](Cc1c[nH]c2ccccc12)C(=O)NCC(=O)N[C@@H](C)C(=O)N[C@@H](CCC(=O)O)C(=O)N[C@H](C(=O)N[C@@H](CS)C(=O)N[C@H](C(=O)N[C@@H](CS)C(=O)N[C@@H](CO)C(=O)N1CCC[C@H]1C(=O)N[C@@H](CO)C(=O)N[C@@H](Cc1c[nH]cn1)C(=O)O)[C@@H](C)O)C(C)C)C(C)C [P124 long V2] (H-IVLLGSWSLGDWGAEVCTCSPSH-OH)
- cross-presentation of synthetic long peptide (V-variant epitope) [1]: cross-presentation was lost

Compound: SLGDWGAEA [SLGDWGAEA]
- CD8+ T cells stained positive with SLGDWGAEA-loaded HLA-A*02:01 tetramers [3]: more than 99%
- CD8+ T cells stained positive with SLGDWGAEA-loaded HLA-A*02:01 tetramers ([3]; listed as peptide 124): > 99%
- donors with outgrowth of p124-specific T cells [4]: 10 donors
- Recognition (IC50) ([2]; Table 1): 0.092525 µg/mL
- Recognition (IC50) ([2]; Table 4): 0.092525 µg/mL
- T cell stimulation by exogenous pulsing of short peptide [5]: stimulated the T cells
- recognition pattern of the stimulated T cell culture (classified as TEIPP) (TAP-negative tumor cells): consistent recognition pattern

Compound: FLGPWPAAS [peptide 105, FLGPWPAAS, reference compound]
- recognition pattern of the stimulated T cell culture (classified as TEIPP) (TAP-negative tumor cells): consistent recognition pattern

Compound: SLGDWGAEL [SLGDWGAEL]
- response of peptide 124-specific CD8+ T cell culture to variant peptide [2]: No response was observed

Compound: LGLIVLLGSWSLGDWGAEV [P124 long V1-4, LGLIVLLGSWSLGDWGAEV]
- cross-presentation of synthetic long peptide (V-variant epitope) [1]: enhanced T cell stimulation and more efficient cross-presentation

Compound: LIVLLGSWSLGDWGAEV [P124 long V1-6, LIVLLGSWSLGDWGAEV]
- cross-presentation of synthetic long peptide (V-variant epitope) [1]: enhanced T cell stimulation and more efficient cross-presentation

Compound: SLGDWGAEV [SLGDWGAEV]
- Recognition (IC50) ([2]; Table 1): 0.001471 µg/mL
- Recognition (IC50) ([2]; Table 4): 0.001471 µg/mL
- improvement of the stimulation of p124-specific T cells vs. c-terminal alanine peptide ([2]; specifically at the lower peptide concentration range): 61 fold

Compound: CC[C@H](C)[C@H](N)C(=O)N[C@H](C(=O)N[C@@H](CC(C)C)C(=O)N[C@@H](CC(C)C)C(=O)NCC(=O)N[C@@H](CO)C(=O)N[C@@H](Cc1c[nH]c2ccccc12)C(=O)N[C@@H](CO)C(=O)N[C@@H](CC(C)C)C(=O)NCC(=O)N[C@@H](CC(=O)O)C(=O)N[C@@H](Cc1c[nH]c2ccccc12)C(=O)NCC(=O)N[C@@H](C)C(=O)N[C@@H](CCC(=O)O)C(=O)N[C@@H](C)C(=O)N[C@@H](CS)C(=O)N[C@H](C(=O)N[C@@H](CS)C(=O)N[C@@H](CO)C(=O)N1CCC[C@H]1C(=O)N[C@@H](CO)C(=O)N[C@@H](Cc1c[nH]cn1)C(=O)O)[C@@H](C)O)C(C)C [P124 long 2] (H-IVLLGSWSLGDWGAEACTCSPSH-OH)
- T cell activation by cross-presented synthetic long peptide (wild type epitope) [1]: the T cells were activated

Compound: CC(C)C[C@H](NC(=O)[C@@H](N)CO)C(=O)NCC(=O)N[C@@H](CC(=O)O)C(=O)N[C@@H](Cc1c[nH]c2ccccc12)C(=O)NCC(=O)N[C@@H](C)C(=O)N[C@@H](CCC(=O)O)C(=O)N[C@@H](C)C(=O)N[C@@H](CS)C(=O)N[C@H](C(=O)N[C@@H](CS)C(=O)N[C@@H](CO)C(=O)N1CCC[C@H]1C(=O)N[C@@H](CO)C(=O)N[C@@H](Cc1c[nH]cn1)C(=O)N1CCC[C@H]1C(=O)N[C@@H](CCC(N)=O)C(=O)N[C@@H](CC(=O)O)C(=O)N[C@@H](C)C(=O)N[C@@H](Cc1ccccc1)C(=O)N[C@@H](CS)C(=O)N[C@@H](CC(N)=O)C(=O)O)[C@@H](C)O [P124 long 3] (H-SLGDWGAEACTCSPSHPQDAFCN-OH)
- T cell activation by cross-presented synthetic long peptide (wild type epitope) [1]: No recognition was observed

Compound: WLGLIVLLGSWSLGDWGAEV [P124 long V1-3]
- cross-presentation of synthetic long peptide (V-variant epitope) [1]: less optimal
